From patent publication US3931407A, “Method of treatment with and compositions containing condensed pyrroles bearing an N-phenyl substituent” (American Hoechst Corporation, priority 1974, dated 1976)
Where two headings read alike, the source gives them in different places.

What was measured:
[1] = tested on: edema induced by carrageenin in rat paws; assay: Carrageenin paw edema in rats; type: in vivo; settings: read-out: Carrageenin paw edema-rats ED50
[2] = tested on: adjuvant-induced arthritis in rats; assay: Adjuvant-induced arthritis in rats; type: in vivo; settings: Rattus norvegicus, 504 h; for inhibition in vivo at 100 mg/kg: 100 mg/kg/day; for inhibition in vivo at 100 mg/kg / inhibition in vivo at 50 mg/kg / inhibition in vivo at 10 mg/kg / inhibition in vivo at 25 mg/kg: rats, day 21; for inhibition in vivo at 50 mg/kg: 50 mg/kg/day; for inhibition in vivo at 10 mg/kg: 10 mg/kg/day; for inhibition in vivo at 25 mg/kg: 25 mg/kg/day
[3] = tested on: writhing induced in mice by 2-phenyl-1,4-benzoquinone; assay: Phenylquinone (2-phenyl-1,4-benzoquinone) writhing in mice, analgesic activity; type: in vivo; settings: Mus musculus, read-out: Phenylquinone writhing-mice ED50
Description: Exp. Biol. Med., 95, 729 (1957)]. The activity of several representative compounds of the present invention and of aspirin and phenylbutazone is expressed as ED50, the dose (mg/kg) of compound producing a 50% reduction in the number of writhes as compared to non-treated 2-phenyl-1,4-benzoquinone dosed controls.

[4] = tested on: yeast-induced pyrexia in rats; assay: Antipyretic assay, yeast-induced pyrexia in rats; type: in vivo, female Charles River or Wistar rats; settings: Rattus norvegicus; dose producing ≥ 1° reduction in rectal temperature in 50 percent of fevered rats; oral; 2 hours past drug
Experimental: A common property of useful anti-inflammatory agents is their ability to lower elevated body temperatures. […] Groups of ten female Charles River or Wistar rats (120-150 gm) are injected with a 20% water suspension of "Brewers Yeast" subcutaneously into the nape of the neck (10 ml/kg). The animals are starved (water ad lib.) and 18 hours later rectal temperatures are monitored (Tele-Thermometer, Yellow Springs Instrument Co., Inc., Yellow Springs, Ohio). Animals with a temperature ≥ 37.2°C. are considered fevered. Drugs are administered orally (10 ml/kg) using distilled water and, if insoluble, one drop of a dispersing agent, e.g. "Tween 80," per 10 ml. Temperatures are recorded 2 hours past drug. Significant activity is a reduction in rectal temperature ≥ 1° from the mean control temperature. The activity of the compounds tested is expressed as ED50, the dose (mg/kg) of a compound producing a reduction of ≥ 1° in rectal temperature of fevered rats from the mean fevered control temperature in 50 percent of the animals.

in vivo = settings: rat, po
Experimental: A common but undesirable side effect of anti-inflammatory agents is the production of gastric irritation in mammals. […] Groups of male or female rats (Wistar, Long Evans or Charles River), 150-180 gm, are utilized for this assay using 10 animals per dose group. The animals are starved for 48 hours (H2 O ad lib) prior to administration of drug orally at 10 ml/kg. Drugs are prepared using distilled water solutions or, if insoluble, 1 drop of a dispersing agent, e.g. "Tween 80"/10 ml, is used with homogenization. The control group receives the vehicle only (10 ml/kg). […] Stomachs are removed and examined for gastric irritation, which is defined as ulceration and/or hemorrhage of gastric mucosa. The presence of a single ulcer or hemorrhage spot is taken as positive and stomachs must be "clean" to be negative. A dose response is run at the peak time using at least four dose levels of test drug. In the table, gastric irritability is expressed as ID50, the dose (mg/kg) of compound producing irritation in 50 percent of the animals after seven hours.

[5] = dose producing 50% reduction in edema vs non-treated controls, rats
[6] = read-out: % Inhibition of Edema on Day 21, Adjuvant Injected Paw
[7] = read-out: % Inhibition of Edema on Day 21, Non-Injected Paw
[8] = dose producing 50% reduction in number of writhes vs non-treated controls, mice

| SMILES | ED50 [1, 5] | inhibition in vivo at 100 mg/kg [2, 6] | inhibition in vivo at 100 mg/kg [2, 7] | ED50 [3, 8] | ED50 [4] | TD50 at 7 h (in vivo) | inhibition in vivo at 50 mg/kg [2, 6] | inhibition in vivo at 50 mg/kg [2, 7] | inhibition in vivo at 10 mg/kg [2, 6] | inhibition in vivo at 10 mg/kg [2, 7] | inhibition in vivo at 25 mg/kg [2, 6] | inhibition in vivo at 25 mg/kg [2, 7] | ED50 [1] | ED50 [3] | TD50 at 7 h (in vivo; in vivo) | inhibition in vivo at 200 mg/kg [2, 6] | inhibition in vivo at 200 mg/kg [2, 7] |
| --- | --- | --- | --- | --- | --- | --- | --- | --- | --- | --- | --- | --- | --- | --- | --- | --- | --- |
| O=C(O)c1cc(-n2c(-c3ccc(F)cc3)cc3c2CCCC3)ccc1O [1-(3-Carboxy-4-hydroxyphenyl)-2-(4-fluorophenyl)-4,5,6,7-tetrahydroindole] | 88 mg/kg | 56% | 64% |  |  |  |  |  |  |  |  |  |  |  |  |  |  |
| O=C(O)c1cc(-n2c(-c3ccccc3)cc3c2CCCC3)ccc1O [1-(3-Carboxy-4-hydroxyphenyl)-2-phenyl-4,5,6,7-tetrahydroindole] | 87 mg/kg | 65% | 80% | 17 mg/kg | 41 mg/kg | 130 mg/kg | 38% | 72% |  |  |  |  |  |  |  |  |  |
| O=C(O)c1cc(-n2c(-c3ccccc3)cc3c2CCCC3)ccc1S [1-(3-Carboxy-4-mercaptophenyl)-2-phenyl-4,5,6,7-tetrahydroindole] | 140 mg/kg |  |  |  |  |  | 67% | 80% | 23% | 23% | 43% | 57% |  |  |  |  |  |
| CC(=O)Oc1ccccc1C(=O)O [Aspirin, reference compound] |  |  |  |  | 35 mg/kg |  |  |  |  |  |  |  | 130 to 140 mg/kg | 53 mg/kg | 42 mg/kg | 37% | 47% |
| O=C(O)c1cc(-n2c(-c3ccccc3)cc3c2CCCCC3)ccc1O [1-(3-Carboxy-4-hydroxyphenyl)-1,4,5,6,7,8-hexahydro-2-phenylcyclohepta[b]pyrrole] | 125 mg/kg | 75% | 90% | 10 mg/kg | 100 mg/kg | > 200 mg/kg |  |  |  |  |  |  |  |  |  |  |  |
| O=C(O)c1cc(-n2c(-c3ccccc3)cc3c4ccccc4ccc32)ccc1O [3-(3-Carboxy-4-hydroxyphenyl)-2-phenylbenz[e]indole] | 90 mg/kg |  |  | 16.5 mg/kg | > 100 mg/kg | > 200 mg/kg | 70% | 70% |  |  | 45% | 50% |  |  |  |  |  |
| CC(=O)Oc1ccc(-n2c(-c3ccccc3)cc3c2CCc2ccccc2-3)cc1C(=O)O [3-(4-Acetoxy-3-carboxyphenyl)-4,5-dihydro-2-phenylbenz[e]indole] | 70 mg/kg | 82% | 93% | 16.5 mg/kg |  | > 300 mg/kg | 56% | 68% |  |  |  |  |  |  |  |  |  |
| O=C(O)c1cc(-n2c(-c3ccccc3)cc3c2CCC3)ccc1O [1-(3-Carboxy-4-hydroxyphenyl)-2-phenyl-1,4,5,6-tetrahydrocyclopenta[b]pyrrole] | 110 mg/kg | 57% | 75% | 10 mg/kg | < 50 mg/kg | 125 mg/kg |  |  |  |  |  |  |  |  |  |  |  |
| CCCCC1C(=O)N(c2ccccc2)N(c2ccccc2)C1=O [Phenylbutazone, reference compound] | 83 mg/kg |  |  | 89 mg/kg | < 50 mg/kg | 75 mg/kg | 60% | 71% |  |  |  |  |  |  |  |  |  |
| O=C(O)c1cc(-n2c(-c3ccccc3)cc3c2CCc2ccccc2-3)ccc1O [3-(3-Carboxy-4-hydroxyphenyl)-4,5-dihydro-2-phenylbenz[e]indole] | 63 mg/kg |  |  | 10 mg/kg | 69 mg/kg | 300 to 350 mg/kg | 69% | 81% | 27% | 29% | 49% | 72% |  |  |  |  |  |
